ChEMBL document CHEMBL4613237, “A novel phytosterol isolated from Datura inoxia, RinoxiaB is a potential cure colon cancer agent by targeting BAX/Bcl2 pathway” (Bioorg Med Chem, 2020)
The source made the active and inactive calls. The calls are words filed in the database; no cut-off is given here.

Tests used:
HCT-15 [1] = assay: Induction of DNA damage in human HCT15 cells assessed as head DNA at 10 uM by neutral comet assay relative to control (reference value: 99.27%); assay type: functional
HCT-15 [2] = assay: Induction of apoptosis in human HCT15 cells assessed as necrotic cells at 10 uM after 24 hrs by annexin V-FITC and propidium iodide staining based flow cytometry (reference value: 0.07%); assay type: functional
HCT-15 [3] = assay: Induction of DNA damage in human HCT15 cells assessed as tail DNA at 10 uM by neutral comet assay relative to control (reference value: 0.72%); assay type: functional
HCT-15 [4] = assay: Induction of DNA damage in human HCT15 cells assessed as tail moment at 4 uM by neutral comet assay (reference value: 0.02); assay type: functional
HCT-15 [5] = assay: Induction of apoptosis in human HCT15 cells assessed as late apoptotic cells at 10 uM after 24 hrs by annexin V-FITC and propidium iodide staining based flow cytometry (reference value: 0%); assay type: functional
HCT-15 [6] = assay: Induction of morphological changes in human HCT15 cells assessed as cell shrinkage after 24 hrs by inverted light microscopic analysis; assay type: functional, cell-based
HCT-15 [7] = assay: Induction of apoptosis in human HCT15 cells assessed as late apoptotic cells at 4 uM after 24 hrs by annexin V-FITC and propidium iodide staining based flow cytometry (reference value: 0%); assay type: functional
HCT-15 [8] = assay: Induction of DNA damage in human HCT15 cells assessed as comet length at 10 uM by neutral comet assay (reference value: 57 pixel); assay type: functional
HCT-15 [9] = assay: Induction of DNA damage in human HCT15 cells assessed as tail length at 10 uM by neutral comet assay (reference value: 4 pixel); assay type: functional
HCT-15 [10] = assay: Induction of cell cycle arrest in human HCT15 cells assessed as accumulation of cells at S phase at 4 uM after 24 hrs by propidium iodide staining based flow cytometry (reference value: 8.73%); assay type: functional
HCT-15 [11] = assay: Induction of apoptosis in human HCT15 cells assessed as reduction in bcl-2 protein expression at 4 to 10 uM after 24 hrs by Western blot analysis; assay type: functional, cell-based
HCT-15 [12] = assay: Antiproliferative activity against human HCT15 cells assessed as reduction in cell viability after 24 hrs by MTT assay; assay type: functional, cell-based
HCT-15 [13] = assay: Induction of DNA damage in human HCT15 cells assessed as olive tail moment at 4 uM by neutral comet assay (reference value: 0.19); assay type: functional
HCT-15 [14] = assay: Induction of apoptosis in human HCT15 cells assessed as increase in bax protein expression at 4 to 10 uM after 24 hrs by Western blot analysis; assay type: functional, cell-based
HCT-15 [15] = assay: Induction of morphological changes in human HCT15 cells assessed as lack of colony forming ability at 4 to 10 uM after 24 hrs by inverted light microscopic analysis; assay type: functional, cell-based
HCT-15 [16] = assay: Antiproliferative activity against human HCT15 cells at 4 uM after 24 hrs by MTT assay relative to control; assay type: functional; details: HCT-15, 24 h
HCT-15 [17] = assay: Induction of apoptosis in human HCT15 cells assessed as increase in cytochrome c protein expression at 4 to 10 uM after 24 hrs by Western blot analysis; assay type: functional, cell-based
HCT-15 [18] = assay: Induction of DNA damage in human HCT15 cells assessed as head length at 4 uM by neutral comet assay (reference value: 53 pixel); assay type: functional
HCT-15 [19] = assay: Induction of apoptosis in human HCT15 cells assessed as viable cells at 4 uM after 24 hrs by annexin V-FITC and propidium iodide staining based flow cytometry (reference value: 99.93%); assay type: functional; details: HCT-15, 24 h, read-out: Activity
HCT-15 [20] = assay: Induction of morphological changes in human HCT15 cells assessed as membrane blebbing at 4 to 10 uM after 24 hrs by inverted light microscopic analysis; assay type: functional, cell-based
HCT-15 [21] = assay: Induction of apoptosis in human HCT15 cells assessed as upregulation of p53 protein expression after 24 hrs by Western blot analysis; assay type: functional, cell-based
HCT-15 [22] = assay: Induction of DNA damage in human HCT15 cells assessed as head length at 10 uM by neutral comet assay (reference value: 53 pixel); assay type: functional
HCT-15 [23] = assay: Induction of apoptosis in human HCT15 cells assessed as early apoptotic cells at 4 uM after 24 hrs by annexin V-FITC and propidium iodide staining based flow cytometry (reference value: 0%); assay type: functional
HCT-15 [24] = assay: Induction of apoptosis in human HCT15 cells assessed as early apoptotic cells at 10 uM after 24 hrs by annexin V-FITC and propidium iodide staining based flow cytometry (reference value: 0%); assay type: functional
HCT-15 [25] = assay: Induction of DNA damage in human HCT15 cells assessed as tail DNA at 4 uM by neutral comet assay relative to control (reference value: 0.72%); assay type: functional
HCT-15 [26] = assay: Downregulation of cyclin D1 expression in human HCT15 cells at 4 to 10 uM after 24 hrs by Western blot anlaysis; assay type: functional, cell-based
HCT-15 [27] = assay: Induction of apoptosis in human HCT15 cells assessed as upregulation of p21 protein expression after 24 hrs by Western blot analysis; assay type: functional, cell-based
HCT-15 [28] = assay: Induction of DNA damage in human HCT15 cells assessed as tail length at 4 uM by neutral comet assay (reference value: 4 pixel); assay type: functional
HCT-15 [29] = assay: Induction of apoptosis in human HCT15 cells assessed as necrotic cells at 4 uM after 24 hrs by annexin V-FITC and propidium iodide staining based flow cytometry (reference value: 0.07%); assay type: functional
HCT-15 [30] = assay: Downregulation of cyclin B1 expression in human HCT15 cells at 4 to 10 uM after 24 hrs by Western blot anlaysis; assay type: functional, cell-based
HCT-15 [31] = assay: Induction of morphological changes in human HCT15 cells assessed as formation of spherical bodies at 4 to 10 uM after 24 hrs by inverted light microscopic analysis; assay type: functional, cell-based
HCT-15 [32] = assay: Induction of cell cycle arrest in human HCT15 cells assessed as accumulation of cells at S phase at 10 uM after 24 hrs by propidium iodide staining based flow cytometry (reference value: 8.73%); assay type: functional
HCT-15 [33] = assay: Induction of DNA damage in human HCT15 cells assessed as olive tail moment at 10 uM by neutral comet assay (reference value: 0.19); assay type: functional
HCT-15 [34] = assay: Induction of apoptosis in human HCT15 cells assessed as viable cells at 10 uM after 24 hrs by annexin V-FITC and propidium iodide staining based flow cytometry (reference value: 99.93%); assay type: functional; details: HCT-15, 24 h, read-out: Activity
HCT-15 [35] = assay: Induction of cell cycle arrest in human HCT15 cells assessed as accumulation of cells at G2/M phase at 4 uM after 24 hrs by propidium iodide staining based flow cytometry (reference value: 13.77%); assay type: functional
HCT-15 [36] = assay: Induction of nuclear morphological changes in human HCT15 cells assessed as increase in propidium iodide positive cells at 4 to 10 uM after 24 hrs by PI-staining based fluorescence microscopic analysis; assay type: functional, cell-based
HCT-15 [37] = assay: Induction of DNA damage in human HCT15 cells assessed as comet length at 4 uM by neutral comet assay (reference value: 57 pixel); assay type: functional
HCT-15 [38] = assay: Induction of cell cycle arrest in human HCT15 cells assessed as accumulation of cells at G0/G1 phase at 10 uM after 24 hrs by propidium iodide staining based flow cytometry (reference value: 77.48%); assay type: functional
HCT-15 [39] = assay: Induction of DNA damage in human HCT15 cells assessed as tail moment at 10 uM by neutral comet assay (reference value: 0.02); assay type: functional
HCT-15 [40] = assay: Induction of apoptosis in human HCT15 cells assessed as increase in caspase-3 protein expression at 4 to 10 uM after 24 hrs by Western blot analysis; assay type: functional, cell-based
HCT-15 [41] = assay: Induction of DNA damage in human HCT15 cells assessed as head DNA at 4 uM by neutral comet assay relative to control (reference value: 99.27%); assay type: functional
HCT-15 [42] = assay: Induction of cell cycle arrest in human HCT15 cells assessed as accumulation of cells at G2/M phase at 10 uM after 24 hrs by propidium iodide staining based flow cytometry (reference value: 13.77%); assay type: functional
HCT-15 [43] = assay: Induction of apoptosis in human HCT15 cells assessed as increase in caspase-9 protein expression at 4 to 10 uM after 24 hrs by Western blot analysis; assay type: functional, cell-based
HCT-15 [44] = assay: Induction of cell cycle arrest in human HCT15 cells assessed as accumulation of cells at G0/G1 phase at 4 uM after 24 hrs by propidium iodide staining based flow cytometry (reference value: 77.48%); assay type: functional

With `C[C@H]1C(=O)O[C@H]2C[C@]1(C)OC[C@H]2[C@H]1CC[C@H]2[C@@H]3CC=C4CC=CC(=O)[C@]4(C)[C@H]3CC[C@]12C` the Activity (HCT-15 [1]) was 34.54%, the Activity (HCT-15 [2]) was 2.57% and the Activity (HCT-15 [3]) was 65.45%. The Activity (HCT-15 [4]) was 5.43, the Activity (HCT-15 [5]) was 63.26% and the Activity (HCT-15 [6]) was “Dose-dependent effect”. For the same compound, the Activity (HCT-15 [7]) was 58.17%, the Activity (HCT-15 [8]) was 36 pixel and the Activity (HCT-15 [9]) was 17 pixel. The Activity (HCT-15 [10]) was 13.34%, the Activity (HCT-15 [11]) was “Active” and the inhibition (HCT-15 [12]) was “Dose-dependent effect”. The IC50 (HCT-15 [12]; HCT-15, 24 h) was 4 µM, the Activity (HCT-15 [13]) was 5.56 and the Activity (HCT-15 [14]) was “Active”. For the same compound, the Activity (HCT-15 [15]) was “Active”, the inhibition at 4 µM (HCT-15 [16]) was 50.7% and the Activity (HCT-15 [17]) was “Active”. For the same compound, the Activity (HCT-15 [18]) was 23 pixel, the viability at 4 µM (HCT-15 [19]) was 21.9% and the Activity (HCT-15 [20]) was “Active”. The Activity (HCT-15 [21]) was “Dose-dependent effect”, the Activity (HCT-15 [22]) was 19 pixel and the Activity (HCT-15 [23]) was 17.79%. The Activity (HCT-15 [24]) was 19.48%, the Activity (HCT-15 [25]) was 45.27% and the inhibition (HCT-15 [26]) was “Active”. For the same compound, the Activity (HCT-15 [27]) was “Dose-dependent effect”, the Activity (HCT-15 [28]) was 12 pixel and the Activity (HCT-15 [29]) was 2.1%. The inhibition (HCT-15 [30]) was “Active”, the Activity (HCT-15 [31]) was “Active” and the Activity (HCT-15 [32]) was 16.46%. It also gave an Activity (HCT-15 [33]) of 8.56, a viability at 10 µM (HCT-15 [34]) of 14.7% and an Activity (HCT-15 [35]) of 19.67%. The Activity (HCT-15 [36]) was “Active”, the Activity (HCT-15 [37]) was 35 pixel and the Activity (HCT-15 [38]) was 61.24%. The Activity (HCT-15 [39]) was 11.12, the Activity (HCT-15 [40]) was “Active” and the Activity (HCT-15 [41]) was 54.72%. The Activity (HCT-15 [42]) was 21.57%, the Activity (HCT-15 [43]) was “Active” and the Activity (HCT-15 [44]) was 66.97%.
